These results are taken from patent publication US20260216181A1, “COMPOSITIONS AND METHODS FOR TREATING CANCER” (Coiled Therapeutics, Inc., priority 2022, published 2026).

The test system of data set [1] is RKO xenograft. Description: RKO colon cancer xenograft tumor growth. The format is in vivo, athymic Balb/c nude mice. On the procedure:
Six-to-eight-week-old female athymic Balb/c nude mice were housed with a temperature-controlled and 12-hour light/12-hour dark cycle environment. For in vivo colon cancer tumor growth, 5×10^6 RKO cells were prepared in 100 μl of DMEM and injected into right flank of female nude mice. Mouse weight and tumor volume were measured twice a week. Tumor volumes were calculated as length×width^2×0.5. Once the tumor volume had reached about 150-175 mm^3, xenografts were randomized into groups (8 mice per group). Animals were treated with vehicle, Compound 80 or oxaliplatin as mentioned in the table. The formulation for vehicle and Compound 80 was 50% PEG400 and 20% Cremophor RH40 final (50% of 40% Cremophor) in Acetate buffer, PH=4. Oxaliplatin was prepared in glucose solution. The mice were sacrificed after around 3 weeks or if the tumors reached a predefined tumor volume cut-off of 2500 mm^3.

In data set [2] the test system is MDA-MB-231 xenograft. Description: MDA-MB-231 xenograft tumor growth. The format is in vivo, athymic Balb/c nude mice. Particulars: 20, 25 and 30 mpk BID. On the procedure:
(§1) Compound 80 was tested in other xenograft models using the following cell lines: triple negative breast cancer cell line, MDA-MB-231, ovarian cancer cell line, SKOV-3 and endometrium cell line, HEC-59. For the SKOV-3 xenograft, 1.5×10^7 SKOV-3 cells in 200 μl of 1:1 DMEM:Matrigel (Thermo Fisher, NJ, USA) and for the MDA-MB-231 xenograft, 1.×10^7 MDA-MB-231 cells in 100 μl of 1:1 DMEM:Matrigel (Thermo Fisher, NJ, USA) for was injected in the right flank of six-to-eight-week-old female athymic Balb/c nude mice. When the tumor volume reached mean of ~200 mm^3 mice for SKOV-3 xenografts and between 150-175 mm^3 for MDA-MB-231 xenografts, mice were randomized in a group of 8, and treatment was initiated vehicle, 20 mpk BID, 25 mpk BID and 30 mpk BID of Compound 80. For the HEC-59 xenografts, 1.×10^7 HEC-59 cells in 100 μl of DMEM (Lonza, NJ, USA) was injected in the right flank of six-to-eight-week-old female athymic Balb/c nude mice. When the tumor volume reached mean of ~150 mm^3 mice were randomized in a group of 8 mice, and treatment was initiated vehicle, 20 mpk BID, 40 mpk QD and 30/40 mpk BID of Compound 80.

Data set [3] deals with HEC-59 xenograft. Description: HEC-59 xenograft tumor growth. The class given is in vivo, athymic Balb/c nude mice. Particulars: 20 mpk BID, 40 mpk QD, 30/40 mpk BID. As to the method: as §1
Data set [4] relates to SKOV-3 xenograft. As to the kind of experiment: SKOV-3 xenograft tumor growth. The class given is in vivo, athymic Balb/c nude mice. Particulars: 20, 25 and 30 mpk BID. As to the method:
as §1

The subject of data set [5] is ovarian cancer xenografts. Particulars: Yao et al., 2014; cited from earlier work.
In data set [6] the test system is ovarian cancer cells. Particulars: Yao et al., 2014; cited from earlier work.
The test system of data set [7] is neuronal differentiation. Particulars: rats; Wurdak et al., 2010; cited from earlier work.
The conditions of data set [8]: Wurdak et al., 2010; cited from earlier work.
Data set [9] deals with glioblastoma (GBM) xenografts. Particulars: Polson et al., 2018; cited from earlier work.

Structures are written as SMILES.

Turning to `C[C@@H]1CN(c2ncc(F)c(Nc3cc(-c4ccc(OC(F)F)cc4)cnn3)n2)C[C@H](C)O1` [Compound 80, 5-(4-(difluoromethoxy)phenyl)-N-(2-((2R,6S)-2,6-dimethylmorpholino)-5-fluoropyrimidin-4-yl)pyridazin-3-amine], the “tumor growth inhibition” value in data set [1] (RKO xenograft, 20 and 30 mg/kg BID, 50 mg/kg QD, PO) was “strong tumor growth inhibition in a dose-dependent manner”. Besides, the “tumor growth inhibition compared to the standard of care (FIG. 1)” value in data set [1] (xenograft model, vs standard of care) is listed as “superior tumor growth inhibition”. Moreover, the “tumor growth inhibition or regression” value in data set [2], in data set [3] and in [4] was “Statistically significant tumor growth inhibition or regression” in each case.

Take `CCN(Cc1ccncc1)Cc1c(O)ccc2c(-c3cc4ccccc4oc3=O)cc(=O)oc12` [SPL-B]: the “tumor growth in ovarian cancer xenografts” value in data set [5] is listed as “suppress tumor growth”. For the same compound, the centrosome microtubule nucleation result in data set [6] is reported as “inhibit the centrosome microtubule nucleation”.

`CC(C)CNc1ccnc(NCc2csc(-c3ccccc3)n2)n1` [KHS101]: the neuronal differentiation result in data set [7] is given as “promote neuronal differentiation”. For the same compound, the oral systemic stability result in data set [8] was “low oral systemic stability”. Moreover, in data set [9], the “tumor growth of glioblastoma (GBM) xenografts” value is “suppressed”.
